Results taken from US7879864B2, “Substituted 8-aminoalkoxy-xanthine compounds and compositions useful in the treatment of hyperlipidemia and diabetes” (Sanofi-Aventis Deutschland GmbH, priority 2004, dated 2011).
Structures can show the parent of a compound that is named as a salt.

Experiments:
[1] = molecular target: T1, DPP-IV from porcine kidney (Sus scrofa, UniProt P22411); assay: Measurement of the DPP-IV activity (fluorimetric H-Ala-Pro-AFC conversion); assay type: biochemical; conditions: DPP-IV 1 mU/ml, H-Ala-Pro-AFC 15 μM, Tris/HCl 40 mM pH 7.4, room temperature, typically 10 min
T1 construct: DPP-IV from porcine kidney (Sigma, Munich); purchased Sigma, Munich; host or cells: porcine kidney
T1 sequence (P22411 whole entry): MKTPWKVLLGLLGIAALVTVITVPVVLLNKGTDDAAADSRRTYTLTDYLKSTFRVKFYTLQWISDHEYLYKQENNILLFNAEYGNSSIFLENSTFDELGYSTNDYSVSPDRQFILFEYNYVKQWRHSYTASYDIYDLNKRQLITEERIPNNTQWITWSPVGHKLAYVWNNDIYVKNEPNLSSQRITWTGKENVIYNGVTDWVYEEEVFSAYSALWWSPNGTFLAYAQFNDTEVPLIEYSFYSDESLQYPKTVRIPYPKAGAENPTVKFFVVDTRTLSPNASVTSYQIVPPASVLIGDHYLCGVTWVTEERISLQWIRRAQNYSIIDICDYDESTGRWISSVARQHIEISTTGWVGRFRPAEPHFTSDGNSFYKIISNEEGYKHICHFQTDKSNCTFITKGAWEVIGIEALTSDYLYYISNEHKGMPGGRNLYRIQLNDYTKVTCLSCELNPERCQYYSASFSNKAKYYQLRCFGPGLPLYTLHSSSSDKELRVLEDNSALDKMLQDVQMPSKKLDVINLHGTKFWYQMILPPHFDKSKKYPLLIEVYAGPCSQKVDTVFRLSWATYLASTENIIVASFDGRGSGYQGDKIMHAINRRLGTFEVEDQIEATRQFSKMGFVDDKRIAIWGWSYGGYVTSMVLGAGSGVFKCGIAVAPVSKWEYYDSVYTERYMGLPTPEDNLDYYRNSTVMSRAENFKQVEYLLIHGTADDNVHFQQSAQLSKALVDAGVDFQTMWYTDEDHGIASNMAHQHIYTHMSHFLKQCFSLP
Protocol: The activity of the compounds was assayed as follows: • Measurement of the DPP-IV activity:
The reaction was carried out at room temperature for various times (typically 10 min) and stopped at the end of the reaction by adding 20 μl of ZnCl2 (1 M). […] When inhibitors were added, the added buffer volume was adapted so that a total volume of 200 μl was maintained for the assay mixture.

Row | Structure (SMILES) | IC50 [1] [nM] | melting point [°C]
1 | CC(C)=CCn1c(OCCN)nc2c1c(=O)n(CC(=O)c1ccccc1)c(=O)n2C [Example 2, 8-(2-Aminoethoxy)-3-methyl-7-(3-methylbut-2-enyl)-1-(2-oxo-2-phenylethyl)-3,7-dihydropurine-2,6-dione] | 20 | –
2 | CC(C)=CCn1c(OCC(N)Cc2ccc(Cl)cc2)nc2c1c(=O)n(CC(=O)c1ccccc1)c(=O)n2C (stereo not shown) [Example 3, 8-[2-Amino-3-(4-chlorophenyl)propoxyl]-3-methyl-7-(3-methylbut-2-enyl)-1-(2-oxo-2-phenylethyl)-3,7-dihydropurine-2,6-dione] | 460 | –
3 | CC(C)=CCn1c(OC[C@H](C)N)nc2c1c(=O)n(CC(=O)c1ccccc1)c(=O)n2C [Example 4, (S)-8-(2-Aminopropoxy)-3-methyl-7-(3-methylbut-2-enyl)-1-(2-oxo-2-phenylethyl)-3,7-dihydropurine-2,6-dione] | 28 | –
4 | CC(C)=CCn1c(OC[C@H]2CCNC2)nc2c1c(=O)n(CC(=O)c1ccccc1)c(=O)n2C [Example 9, (S)-3-Methyl-7-(3-methylbut-2-enyl)-1-(2-oxo-2-phenylethyl)-8-(pyrrolidin-3-ylmethoxy)-3,7-dihydropurine-2,6-dione hydrochloride] | 120 | –
5 | CC(C)=CCn1c(OC[C@@H]2CCNC2)nc2c1c(=O)n(CC(=O)c1ccccc1)c(=O)n2C [Example 10, (R)-3-Methyl-7-(3-methylbut-2-enyl)-1-(2-oxo-2-phenylethyl)-8-(pyrrolidin-3-ylmethoxy)-3,7-dihydropurine-2,6-dione hydrochloride] | 34 | –
6 | CC(C)=CCn1c(OC[C@@H](C)N)nc2c1c(=O)n(CC(=O)c1ccccc1)c(=O)n2C [Example 11, (R)-8-(2-Aminopropoxy)-3-methyl-7-(3-methylbut-2-enyl)-1-(2-oxo-2-phenylethyl)-3,7-dihydropurine-2,6-dione] | 100 | –

The remaining lines, values ahead:

Row | IC50 [1] [nM] | melting point [°C] | Structure (SMILES)
7 | 4.5 | – | CC(C)=CCn1c(OC2CCCCC2CN)nc2c1c(=O)n(CC(=O)c1ccccc1)c(=O)n2C (mixture of isomers) [Example 37, trans-8-(2-Aminomethylcyclohexyloxy)-3-methyl-7-(3-methylbut-2-enyl)-1-(2-oxo-2-phenylethyl)-3,7-dihydropurine-2,6-dione hydrochloride (mixture of diastereomers)]
8 | 13 | – | CC(C)=CCn1c(O[C@@H]2CCCC[C@@H]2CN)nc2c1c(=O)n(CC(=O)c1ccccc1)c(=O)n2C (relative stereo) [Example 28, cis-8-(2-Aminomethylcyclohexyloxy)-3-methyl-7-(3-methylbut-2-enyl)-1-(2-oxo-2-phenylethyl)-3,7-dihydropurine-2,6-dione]
9 | – | 151.7 | CC(C)=CCn1c(O[C@@H]2CCCC[C@H]2CN)nc2c1c(=O)n(CC(=O)c1ccccc1)c(=O)n2C (single isomer, unassigned; diastereomer 1) [Example 38, trans-8-(2-Aminomethylcyclohexyloxy)-3-methyl-7-(3-methylbut-2-enyl)-1-(2-oxo-2-phenylethyl)-3,7-dihydropurine-2,6-dione (diastereomer 1)]
10 | 51 | – | CC(C)=CCn1c(OCC2CCCCN2)nc2c1c(=O)n(CC(=O)c1ccccc1)c(=O)n2C (stereo not shown) [Example 7, 3-Methyl-7-(3-methylbut-2-enyl)-1-(2-oxo-2-phenylethyl)-8-(piperidin-2-ylmethoxy)-3,7-dihydropurine-2,6-dione]
